Literature values as cited in patent US20120043242A1, “Medicinal cannabis fatty foodstuff” (priority 2010, published 2012).
Read-outs that look alike come from different tables or passages of the source.

Legend:
healthy individuals = healthy individuals / humans
people who use cannabis = conditions: compared with the no cannabinoid and the TCH+CBD groups

Structure (SMILES) | anxiety and psychotic symptoms (healthy individuals) | decarboxylation of concentrated THCA-A in solution into Δ^9-THC (120 degrees C.) | decarboxylation of concentrated THCA-A in solution into Δ^9-THC (140 degrees C.) | decarboxylation of concentrated THCA-A in solution into Δ^9-THC (160 degrees C.) | positive schizophrenia-like symptoms (people who use cannabis) | degradation of Δ^9-THC into cannabinol and dihydrocannabinol (160 degrees C.) | degradation of Δ^9-THC into cannabinol and dihydrocannabinol (180 degrees C.)
C=C(C)[C@@H]1CCC(C)=C[C@H]1c1c(O)cc(CCCCC)cc1O [CBD, cannabidiol] | anxiolytic and to have antipsychotic properties |  |  |  |  |  | 
CCCCCc1cc2c(c(O)c1C(=O)O)[C@@H]1C=C(C)CC[C@H]1C(C)(C)O2 [THCA-A, tetrahydrocannabinol carboxylic acid] |  | Partial decarboxylation | Significant decarboxylation | Nearly complete decarboxylation |  |  | 
CCCCCc1cc(O)c2c(c1)OC(C)(C)[C@@H]1CCC(C)=C[C@@H]21 [Δ^9-THC, Tetrahydrocannabinol] | elevate levels of anxiety and psychotic symptoms |  |  |  | higher levels | some degradation | A significant percentage
